One molecule from article PMC5513211, “PA-6 inhibits inward rectifier currents carried by V93I and D172N gain-of-function KIR2.1 channels, but increases channel protein expression” (Journal of Biomedical Science, 2017) can be followed below.

Structures are written as SMILES. Where two headings read alike, the source gives them in different places.

Experiment [1] addresses T1, V93I KIR2.1 (Homo sapiens, UniProt P63252, V93I).
T1 construct: expressed in transfected cells; host or cells: HEK293T
T1 sequence (P63252 1-427 V93I): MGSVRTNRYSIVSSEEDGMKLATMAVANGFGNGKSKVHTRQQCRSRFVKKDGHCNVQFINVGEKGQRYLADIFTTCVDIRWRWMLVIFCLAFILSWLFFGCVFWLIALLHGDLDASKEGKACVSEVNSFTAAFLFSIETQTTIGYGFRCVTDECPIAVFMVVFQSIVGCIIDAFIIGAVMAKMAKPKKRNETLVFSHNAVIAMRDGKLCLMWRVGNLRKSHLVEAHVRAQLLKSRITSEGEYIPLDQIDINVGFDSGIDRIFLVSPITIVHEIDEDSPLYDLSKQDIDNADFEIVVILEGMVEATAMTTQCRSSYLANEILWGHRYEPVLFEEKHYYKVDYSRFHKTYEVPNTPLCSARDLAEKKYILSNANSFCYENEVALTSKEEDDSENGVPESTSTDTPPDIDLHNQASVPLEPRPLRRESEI
In words: Inside-out patch clamp, ramp protocol, V93I KIR2.1 currents. The format is cell-based. The settings on record: inside-out mode, HEK293T, 21 °C. An excerpt: (§1) Mutations V93I and D172N were engineered into a human KCNJ2-pcDNA3 expression construct, using the QuikChange II XL Site-Directed Mutagenesis Kit (Stratagene, La Jolla, CA) and custom designed primers. The presence of the introduced mutations was confirmed by Sanger sequencing.
HEK293T cells were transfected with WT, V93I or D172N constructs together with a GFP expression construct to enable detection of transfected cells. Inside-out patch clamp measurements were made using a HEKA EPC-10 Double Plus amplifier controlled by PatchMaster 2.10 software (HEKA, Lambrecht/Pfalz, Germany) at 21 °C. To record WT, V93I and D172N KIR2.1 currents, inside-out patch-clamp measurements were performed using a ramp protocol ranging from −100 to +100 mV in 5 s from a holding potential of −40 mV. Excised patches were placed in close proximity to the inflow region of the perfusion chamber. Bath solution contained 125 mM KCl, 4 mM EDTA (2K), 7.2 mM K2HPO4, 2.8 mM KH2PO4, pH 7.20/KOH. Pipette solution contained 145 mM KCl, 1 mM CaCl2, 5 mM HEPES, pH 7.40/KOH. Measurements were started following washout of polyamines/Mg^2+ from the channel pore observed by the disappearance of current rectification. For IC50 curves, fractional block at −80 and +50 mV was determined by dividing current levels obtained with PA-6 containing solutions by current levels of control traces recorded in the absence of PA-6.

The target of experiment [2] is T1, V93I KIR2.1. Put plainly: Whole cell patch clamp, V93I KIR2.1 currents. The settings on record: whole cell mode. The format is cell-based. The protocol:
as §1
Whole cell patch clamp measurements were done as described before using an AxoPatch 200B amplifier controlled by pClamp9 software (Molecular devices, Sunnyvale, CA, USA) at 21 °C. Whole cell IKIR2.1 measurements were performed by applying 1 s test pulses ranging between −120 and +30 mV, in 10 mV increments, from a holding potential of −40 mV, and with series resistance compensation of at least 70%. Steady state current at the end of the pulse was normalized to cell capacitance and plotted versus test potential (corrected for liquid junction potential). Extracellular solution contained 140 mM NaCl, 5 mM KCl, 1 mM CaCl2, 1 mM MgCl2, 6 mM glucose, 17.5 mM NaHCO3, 15 mM HEPES, pH 7.4/NaOH. Pipette solution contained 125 mM potassium gluconate, 10 mM KCl, 5 mM HEPES, 5 mM EGTA, 2 mM MgCl2, 0.6 mM CaCl2, 4 mM Na2ATP, pH 7.20/KOH.
(The patch-clamp technique gives a direct electrical read-out from membranes.)

Experiment [3] addresses T1, V93I KIR2.1. Put plainly: Western blot of KIR2.1 expression, transiently transfected HEK293T cells, V93I. Type of experiment: cell-based. The settings on record: 24 h. As for the experimental part: HEK293T cells were grown in 60 mm culture dishes containing 3 mL DMEM supplemented with 10% FCS, L-Glutamine and Pen-Strep, and transfected using linear polyethylenimine (PEI) (PolysciencesInc, Eppelheim, Germany) as described earlier. Cell lysates were prepared in buffer D (20 mM HEPES, 125 mM NaCl, 10% glycerol, 1 mM EDTA, 1 mM EGTA, 1 mM dithiothreitol, and 1% Triton X-100, pH 7.6, supplemented with 1 mM PMSF and 10 μg/mL aprotinin). 20 μg protein lysate was separated by 10% SDS-PAGE and blotted onto nitrocellulose membrane. Ponceau staining was used to reveal equal protein loading and subsequent quantification. Blots were blocked with 5% (v/v) […] in TBST (20 mM Tris-HCl pH 8.0, 150 mM NaCl, 0.05% (v/v) Tween-20) for 1 h at room temperature. KIR2.1 WT and mutants were detected by N-terminal KIR2.1 antibody (Santa Cruz Biotechnology, Dallas Tx, USA, cat. No. sc-18708) and peroxidase-conjugated donkey anti-goat secondary antibody (Jackson ImmunoResearch, West Grove, PA, cat. No. 705-035-003) followed by ECL detection procedure (GE Healthcare, Hoevelaken, The Netherlands). For quantification purposes, untransfected HEK293T cells were used as blank and protein levels were normalized to ponceau staining levels. Differences between group averages were tested by using a one-way ANOVA with a Bonferroni’s post-hoc test.

The test system of experiment [4] is WT, V93I and D172N KIR2.1 channels. In words: Confocal immunofluorescence microscopy of KIR2.1 localization in HEK293T cells. Type of experiment: cell-based, human. The note with it: 24 h, WT or mutant. As for the experimental part:
HEK293T and MES-1 cells were cultured on pre-coated (0.1% gelatin) glass coverslips and transfected using Lipofectamin (Invitrogen, Breda, The Netherlands). Cell fixation, immunolabeling and imaging were performed exactly as described earlier. Antibodies used were anti-KIR2.l (1:250; Santa Cruz Biotechnology, cat. no. sc-18708) and anti-Pan Cadherin (1:800, Sigma-Aldrich, St. Louis MO, USA, cat. No. C1821). HEK293T cells were imaged by confocal microscopy using a Zeiss LSM 700 confocal microscope (Carl Zeiss Microscopy GmbH, Germany) equipped with a 63× oil immersion objective (NA 1.4). Excitation was performed with an air-cooled Argon ion laser (LASOS, RMC 7812Z, 488 nm) for GFP and a HeNE (LASOS, SAN 7450A, 543 nm) laser for DyLight. MES-1 cells were imaged using a conventional Nikon eclipse 80i light microscopy equipped with a 40× objective (NA 0.75).

The mark [5] stands for this setting: at −50 mV, read-out: Inhibition of outward IK1.
Where [6] appears, read: at −110 mV, read-out: Inhibition of inward IK1.

Regarding `N=C(Nc1ccc(OCCCCCOc2ccc(NC(=N)c3ccccc3)cc2)cc1)c1ccccc1` [PA-6], the IC50 in experiment [1] (at +50 mV, read-out: IC50, outward current) is 43.6 nM; in experiment [1] (at −80 mV, read-out: IC50, inward current) it was 58 nM; in experiment [2], 1000 to 3000 nM. For the same molecule, the inhibition at 1 µM is 18 ± 20% in experiment [2] (setting [5]) and 28 ± 14% in experiment [2] (setting [6]). The figures for the inhibition at 3 µM in experiment [2] (setting [5]) and in experiment [2] (setting [6]) were 77 ± 29% and 64 ± 4%, respectively. Moreover, the “Increase of KIR2.1 expression level” value in experiment [3] (5 μM) came to 3.9 ± 0.9 fold. Besides, the “Effect on KIR2.1 expression level at lower concentrations” value in experiment [3] (0.2 and 1 μM) was “did not result in significant increased expression”. In addition, the “Subcellular location of KIR2.1 channels” value in experiment [4] (1 μM) is listed as “induced an intracellular increase of the channel proteins in small aggregates”; in experiment [4] (5 μM) it was “further increased the level of intracellular accumulation”.

For orientation: IC50 means the midpoint of a concentration-inhibition curve. By inhibition is commonly meant the relative decrease from the control value, in per cent.
